Holding throughout (test): DTP human tumour cell line panel, 48 h
The test system of test [1] is EKVX NSCLC.
Test [2] relates to HCC-2998 colon.
Test [3] relates to KM12 colon.
Test [4] deals with M14 melanoma.
Test [5] has as its system NCI-H460 lung.
Test [6] deals with SK-MEL-5 melanoma.
For test [7], the system named is SNB-75 CNS.
The test system of test [8] is UACC-62 melanoma.
Test [9] concerns COLO 205 colon.
Test [10] deals with RPMI-8226 leukemia.

“And” between values parts separate entries of the source, which are not always exact repeats. Equal entries are not always repeated.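 Interpolation was linear, between the two tested concentrations surrounding the appropriate level; five concentrations were tested over 48 hours in 96-well plates. GI50: concentration for 50% inhibition of growth. The concentration for full growth arrest is given as TGI.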 A value given as a limit tells only on which side of the number the result lay.

For orientation: GI50 means the concentration giving 50% growth inhibition. What is called TGI is the concentration giving total growth inhibition. Low readings indicate more potent growth arrest, high ones less potent growth arrest. For `CN1CCN(CCOc2ccc(-c3cnc4c(-c5ccc(C(F)(F)F)cc5)cnn4c3)cc2)CC1`, the GI50 was 1.51 µM in test [1]; 1.67 µM in test [2]; 1.71 µM in test [3]; 1.7 µM in test [4]; 1.16 µM in [5]; 1.63 µM in [6]. In addition, the GI50 in test [7] was 1.5 µM; in [8], 1.69 µM. The TGI in [1] was found to be 2.97 µM; in [2] it was 3.34 µM; in test [3], 3.21 µM; in test [4], 3.25 µM; in [5] it was 2.44 µM; in test [6], 3.03 µM. The TGI worked out at 2.88 µM in test [7] and 3.13 µM in [8].

With `O=[N+]([O-])c1ccc2c(c1)Cc1cc(N=Cc3ccc4c(c3)OCO4)ccc1-2`, the TGI in test [9], in test [1], in [3], in test [4], in test [5] and in [10] was > 100 µM in each case. In addition, the TGI in test [6], in test [7] and in [8] was > 100 µM in each case.

As to `COc1ccc2c(c1)nnn1c3ncccc3c(N=O)c21`, the GI50 in [9] was 0.681 µM and 1.22 µM; in test [1], 3.38 µM and 3.82 µM; in [2], 7.23 µM and 1.24 µM; in test [3], 1.03 µM and 3.02 µM; in [4], 1.57 µM and 3.44 µM; in test [5] it was 1.67 µM and 2.19 µM. Besides, the GI50 was 0.261 µM and 1.08 µM in test [10]; 5.01 µM and 11.7 µM in test [6]; 0.853 µM and 2.56 µM in test [8]. The TGI in test [9] is 2.74 µM; in test [1], 25.3 µM and 61.8 µM; in [2], 15.6 µM and 2.79 µM; in test [3], 6.91 µM and 13.5 µM; in test [5] it was 8.12 µM and 7.8 µM; in test [10] it was 1.44 µM and 7.64 µM. The TGI in test [6] is 11.1 µM and 24.1 µM; in test [8], 7.81 µM and 13.9 µM.

For `O=C1C2C3C=C4c5ccccc5N(c5ccccc5)C4(C2C(=O)N1c1ccc(Cl)cc1)[C@H]1C(=O)N(c2ccc(Cl)cc2)C(=O)[C@@H]31` (some centres undefined), the TGI in test [9], in test [1], in test [3], in [4], in [5] and in [10] was > 100 µM throughout. In addition, the TGI in test [6], in [7] and in [8] was > 100 µM throughout.

`Cc1cc(C(=C2C=CC(=Nc3ccccc3)C=C2)c2ccc(Nc3ccccc3)cc2)ccc1N`: the GI50 was 0.201 µM in [9]; 0.334 µM in [1]; 0.211 µM in test [2]; 0.312 µM in test [3]; 0.286 µM in test [4]; 0.223 µM in test [5]. Moreover, the GI50 in test [6] was 0.253 µM; in test [7], 0.598 µM; in [8], 0.25 µM. The TGI in [9] is 0.407 µM; in [1], 1.26 µM; in test [2], 0.452 µM; in [3] it was 1.05 µM; in test [4] it was 1.04 µM; in [5] it was 0.532 µM. In addition, the TGI in [6] was 0.718 µM; in test [7], 2.22 µM; in test [8], 0.796 µM.

For `Cc1cc(NCCCCCCNc2cc(C)nc3cc(N(C)C)ccc23)c2ccc(N(C)C)cc2n1`, the TGI in test [1], in test [2], in test [3], in test [4], in [5] and in [6] was > 100 µM in each case. In addition, the TGI in test [7] was > 100 µM; in test [8] it was 21.4 µM.

For the molecule `OCC(O)C(Cl)CCl` (centres undefined), the TGI in [9], in test [1], in test [2], in [3], in test [4] and in test [5] was > 100 µM throughout. Moreover, the TGI in test [6], in test [7] and in [8] was > 100 µM each time.

With `CCC1CN2C(=N1)c1ccccc1-c1cc(Cl)ccc12` (centres undefined), the GI50 in [9] was 3.21 µM; in [1], 4.74 µM; in test [2] it was 4.17 µM; in test [3] it was 3.18 µM; in test [4], 3.13 µM; in test [5] it was 2.15 µM. In addition, the GI50 in test [6] is 2.03 µM; in [7], 3.73 µM; in test [8], 1.76 µM. Further, the TGI in test [9] amounted to 12.6 µM; in [1], 26.6 µM; in [2] it was 16.3 µM; in test [3], 12.5 µM; in test [4] it was 10.4 µM; in test [5], 10.5 µM. Further, the TGI in test [6] came out at 4.69 µM; in test [7] it was 16 µM; in test [8] it was 5.17 µM.

`OCC1C(/C=C/c2ccoc2)ON2CCCC12` (centres undefined): the TGI in test [9], in test [1], in [2], in [3], in test [4] and in test [5] was > 100 µM throughout. Also, the TGI in test [7] was > 100 µM.

On to `COC1/C=C/C(C)C(C(C)C(OC)C(C)CCC(=O)C(C)C(C/C=C/N(C)C=O)OC)OC(=O)/C=C/C=C(\C)CC(OC)CC2=CC(=O)O[C@H](C2)C(C)C(OC)CC(OC)/C=C/C(C)C(OC)C1` (some centres undefined), for which the GI50 is 0.0184 µM in [9]; 0.123 µM in test [1]; 0.0046 µM in test [2]; 0.00696 µM in test [3]; 0.0215 µM in [4]; 0.01 µM in test [5]. The GI50 in test [6] is 0.113 µM; in test [8] it was 0.0515 µM. The TGI was 0.131 µM in [9]; 0.869 µM and 0.362 µM in [1]; 0.0686 µM in test [4]; 0.118 µM and 0.097 µM in test [5]; 0.0194 µM in test [10].

Values taken from PubChem BioAssay (NCI).
